Reference: ChEMBL document CHEMBL1201862, “PubChem BioAssay data set” (2004)
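Five concentrations, 48 hours, 96-well plates. Here, GI50 denotes the concentration required for 50% inhibition of growth.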 Calls of active or inactive are those of the source. Cut-off read from the data, not from the text of the source: active = GI50 up to about 1.1 µM and inactive = higher.

Columns and labels:
Assay in all cases: NCI-60 cell line screen, 48 h
[1] = system: RXF 393
[2] = system: SK-MEL-5
[3] = system: CCRF-CEM
[4] = system: SNB-19
[5] = system: HCC 2998
[6] = system: HCT-15
[7] = system: SK-MEL-28
[8] = system: K562
[9] = system: MDA-N
[10] = system: CAKI-1
[11] = system: SF-268
[12] = system: Malme-3M
[13] = system: M14
[14] = system: SR
[15] = system: ACHN
[16] = system: LXFL 529
[17] = system: BT-549
[18] = system: KM12
[19] = system: EKVX
[20] = system: HOP-92

Structure (SMILES) | GI50 [1] | GI50 [2] | GI50 [3] | GI50 [4] | GI50 [5] | GI50 [6] [µM] | GI50 [7] | GI50 [8] | GI50 [9] | GI50 [10] | GI50 [11] | GI50 [12] | GI50 [13] | GI50 [14] | GI50 [15] | GI50 [16] | GI50 [17] | GI50 [18] | GI50 [19] | GI50 [20]
Cc1nc2c(nc1C)C(=O)c1ccccc1C2=O | 15.4 µM (inactive) | 0.188 µM (active) | 8.55 µM (inactive) | 5.37 µM (inactive) | 6.58 µM (inactive) | 2.58 | 1.84 µM (inactive) | 7.67 µM (inactive) | 0.245 µM (active) | 24.4 µM (inactive) | 10.2 µM (inactive) | 0.237 µM (active) | 0.871 µM (active) | 8.43 µM (inactive) | 10.4 µM (inactive) | 24.4 µM (inactive) | 1.35 µM (inactive) | 5.69 µM (inactive) | 15.4 µM (inactive) | 18.1 µM (inactive)
CN1CCN(CCSC2Cc3cc(Cl)ccc3Sc3ccccc32)CC1 (stereo not drawn) | 4.19 µM (inactive) | 3.26 µM (inactive) |  | 13.9 µM (inactive) | 4.18 µM (inactive) | 4.59 | 1.86 µM (inactive) | 1.71 µM (inactive) |  | 6.67 µM (inactive) | 8.47 µM (inactive) | 2.45 µM (inactive) | 1.91 µM (inactive) | 5.07 µM (inactive) | 8.36 µM (inactive) | 2.89 µM (inactive) |  | 3.46 µM (inactive) | 15.1 µM (inactive) | 4.5 µM (inactive)
FC(F)(F)c1ccccc1C1SCc2nc3ccccc3n21 (stereo not drawn) | 91.8 µM (inactive) | > 10 µM (inactive) | 27.4 µM (inactive) | > 100 µM (inactive) | > 100 µM (inactive) |  | 77.8 µM (inactive) | 16.2 µM (inactive) |  | 32.6 µM (inactive) | 61.9 µM (inactive) | 25.4 µM (inactive) |  | 27.9 µM (inactive) | 40.6 µM (inactive) | 99.8 µM (inactive) |  | 70.8 µM (inactive) | 41.1 µM (inactive) | 4.67 µM (inactive)
CN(C)CCC(=O)N1C/C(=C\c2ccc(Cl)c(Cl)c2)C(=O)/C(=C/c2ccc(Cl)c(Cl)c2)C1 | 0.269 µM (active) | 0.453 µM (active) | 0.0269 µM (active) | 0.287 µM (active) | 0.321 µM (active) | 0.184 | 0.618 µM (active) | 0.038 µM (active) | 0.213 µM (active) | 0.394 µM (active) | 0.309 µM (active) | 0.64 µM (active) | 0.291 µM (active) | 0.0746 µM (active) | 0.329 µM (active) | 0.211 µM (active) | 0.426 µM (active) | 0.279 µM (active) | 0.565 µM (active) | 0.394 µM (active)
Cc1ccc(C(=O)c2nnc(C(=O)c3ccc(C)cc3)nn2)cc1 |  | 50.9 µM (inactive) | 18.8 µM (inactive) | 41.5 µM (inactive) | > 100 µM (inactive) | 76 | 51.3 µM (inactive) | 23.3 µM (inactive) |  | 74.3 µM (inactive) | 21 µM (inactive) | 65.5 µM (inactive) | 22.2 µM (inactive) | 5.45 µM (inactive) | 76 µM (inactive) | 53.2 µM (inactive) |  | 62.7 µM (inactive) | 59.6 µM (inactive) | 32.1 µM (inactive)
Cc1ccc(C(=O)N(C2CCCCC2)C2CCCCC2)cc1/N=N/N(C)C |  | 14.3 µM (inactive) | 14.9 µM (inactive) | 12.6 µM (inactive) | 15.7 µM (inactive) | 14.1 | 7.14 µM (inactive) | 8.28 µM (inactive) | 15 µM (inactive) | 12.9 µM (inactive) | 10.8 µM (inactive) | 16.2 µM (inactive) | 17.6 µM (inactive) | 18.2 µM (inactive) | 8.83 µM (inactive) | 14.6 µM (inactive) | 13.9 µM (inactive) | 6.71 µM (inactive) | 16.3 µM (inactive) | 11 µM (inactive)
CCOC(=O)N1c2c(ccn2C)-c2ccn(C)c2N1C(=O)OCC |  | > 100 µM (inactive) | 2.64 µM (inactive) | > 10 µM (inactive) | 19.6 µM (inactive) | 12.9 |  | 4.2 µM (inactive) |  | 18.3 µM (inactive) | 19.1 µM (inactive) | 19 µM (inactive) | 15.1 µM (inactive) | 15.8 µM (inactive) | 15.8 µM (inactive) | 17.2 µM (inactive) |  | 19.9 µM (inactive) |  | 20.6 µM (inactive)
CC(=O)C1=CCC2c3[nH]c4ccccc4c3CCN2C1 (stereo not drawn) | 35.8 µM (inactive) | 50 µM (inactive) | 38.5 µM (inactive) | > 100 µM (inactive) | 55 µM (inactive) | 50.8 | > 100 µM (inactive) | 31 µM (inactive) |  |  | 69.2 µM (inactive) | 72.1 µM (inactive) | > 100 µM (inactive) | 31.8 µM (inactive) | 78 µM (inactive) | 66.8 µM (inactive) |  | 52.6 µM (inactive) | 67.1 µM (inactive) | 36.3 µM (inactive)
CCOC(=O)C1C(c2ccccc2)=C(c2ccccc2)C(c2ccccc2)=C1c1ccccc1 | 15.3 µM (inactive) | 46.7 µM (inactive) | > 79.3 µM (inactive) | 18.8 µM (inactive) | > 100 µM (inactive) | 72.1 | 54.1 µM (inactive) | 35 µM (inactive) |  | > 65.3 µM (inactive) | 43 µM (inactive) | 40.9 µM (inactive) | 57.4 µM (inactive) | 46.8 µM (inactive) | 28.6 µM (inactive) | 41.8 µM (inactive) |  | > 100 µM (inactive) | > 88.3 µM (inactive) | 12.4 µM (inactive)
CCN1C(=O)C/C(=C\C(C)=O)Nc2ccccc21 | > 100 µM (inactive) | 10 µM (inactive) | > 100 µM (inactive) | > 100 µM (inactive) | > 100 µM (inactive) |  | > 100 µM (inactive) | > 100 µM (inactive) |  | > 100 µM (inactive) | > 100 µM (inactive) | > 100 µM (inactive) | > 100 µM (inactive) | > 100 µM (inactive) |  | > 100 µM (inactive) |  | > 100 µM (inactive) | > 100 µM (inactive) | > 100 µM (inactive)
O=C(N[C@H](CO)[C@H](O)c1ccc([N+](=O)[O-])cc1)C(Cl)Cl [CHLORAMPHENICOL] | > 100 µM (inactive) | > 100 µM (inactive) | > 100 µM (inactive) | > 100 µM (inactive) | > 100 µM (inactive) | > 100 | > 100 µM (inactive) | > 100 µM (inactive) | > 100 µM (inactive) | > 100 µM (inactive) | > 100 µM (inactive) | > 100 µM (inactive) | > 100 µM (inactive) | > 100 µM (inactive) | > 100 µM (inactive) | > 100 µM (inactive) | > 100 µM (inactive) | > 100 µM (inactive) | > 100 µM (inactive) | 85.3 µM (inactive)
CN(C)/N=N/c1[nH]cnc1C(N)=O [DACARBAZINE] | 82.8 µM (inactive) | 74.6 µM (inactive) | 11.6 µM (inactive) | > 99.1 µM (inactive) | 45.8 µM (inactive) | 94.6 | 86.5 µM (inactive) | 16 µM (inactive) | > 86.1 µM (inactive) | 19 µM (inactive) | 63.8 µM (inactive) | 41.5 µM (inactive) | 27.2 µM (inactive) | 18.9 µM (inactive) |  | 98.2 µM (inactive) | 51.3 µM (inactive) | 92.7 µM (inactive) |  | 30.3 µM (inactive)
